Assay results published in patent US12509460B2 (Skyhawk Therapeutics, Inc., priority 2019, dated 2025).
Read-outs that look alike come from different tables or passages of the source.

How the values were obtained:
[1] = system: mHTT protein in GM04724 (CAG 70/20) Huntington's disease patient lymphoblast cells; assay: mHTT protein assay, 2B7-MW1 assay via Mesoscale Discovery (MSD); format: cell-based, human
Protocol: Example A10: mHTT Protein Assay
Compounds are tested on GM04724 (CAG 70/20) Huntington's disease patient lymphoblast cells at doses ranging from 10 μM to 0.6 nM. 4,500 cells/well are seeded in 384 well plates. One plate replica is carried out for parallel viability testing by CellTiter Glo (CTG). Compounds are incubated for 48 hours. mHTT protein levels are assessed by the 2B7-MW1 assay via Mesoscale Discovery (MSD) as previously reported (Macdonald et al., 2014). The antibody pair is comprised of previously characterized monoclonals (2B7 and MW1) interrogating two regions for HTT conformation and biological properties: the N, 17 domain and the polyQ domain (Baldo et al., 2012; Ko et., 2001). 2B7-MW1 is […] specific levels of HTT at the time of treatment. 2B7-MW1 is dependent on polyQ expansion (e.g., the higher the expansion the higher the signal) and on mHTT size (e.g., a similar polyQ will give higher signal with smaller HTT size). The viability readout is carried out by CTG according to the manufacturer's instructions.

[2] = system: SMN FL and SMN Δ7 in spinal muscular atrophy (SMA) patient fibroblasts (GM03813, Coriell); assay: Quantitative splicing assay (SMN), qPCR; format: cell-based, human; details: Homo sapiens, Fibroblast, 24 h, read-out: SMN2 Splicing FL EC50
Protocol: Spinal muscular atrophy (SMA) patient fibroblasts (GM03813, Coriell) are plated in 96-well plates at 50,000 cells/well. […] Treated cells are lysed and cDNA synthesized using the Fast Advanced Cells-to-Ct kit (Thermofisher A35378) according to the manufacturer's instructions. 2 μL of each cDNA are used in qPCR reactions. […] Reactions are run in a Quant Studio 6 qPCR instrument with default settings.

[3] = system: SMN protein in spinal muscular atrophy (SMA) patient fibroblasts (GM03813, Coriell); assay: SMN protein assay, Mesoscale Discovery (MSD); format: cell-based, human; details: read-out: SMN2 protein EC50
Protocol: Example A12: SMN Protein Assay
Compounds are tested on spinal muscular atrophy (SMA) patient fibroblasts (GM03813, Coriell) at doses ranging from 2.5 μM to 0.6 nM. 7000 cells/well are seeded in 96-well plates. Compounds are incubated for 48 hours and the cells were lysed with 100 μL of lysis buffer. 20 μL of lysate is used for SMN protein measurement by Mesoscale Discovery (MSD) assay developed by PharmOptima (Michigan). A standard curve prepared with SMN protein ranging from 1 μg/ml to 19.5 pg/ml is used in each MSD plate to calculate the absolute SMN protein amount in each sample.

MDR1 (P-gp) = assay: Blood-brain-barrier (BBB) penetration potential via MDCK-MDR1 permeability assay; details: dog; for Papp A→B at 120 min, 5 μM: MDCK-MDR1, pH 7.4, MDCK-MDR1: Papp A-B; for Papp B→A at 120 min, 5 μM: MDCK-MDR1, pH 7.4, MDCK-MDR1: Papp B-A; for efflux ratio at 120 min, 5 μM: MDCK-MDR1, pH 7.4, MDCK-MDR1: Efflux
[4] = system: MDR1-MDCK cell monolayers; assay: as above
MDR1 = assay: as above; details: dog, MDCK-MDR1, pH 7.4, MDCK-MDR1: Efflux
[5] = GM04724 Huntington's disease patient lymphoblasts
[6] = SMA patient fibroblasts GM03813, 24 h, qPCR
[7] = SMA patient fibroblasts GM03813, 48 hours, MSD
[8] = GM04724 (CAG 70/20) Huntington's disease patient lymphoblasts
[9] = SMA patient fibroblasts (GM03813)
[10] = SMA patient fibroblasts (GM03813), 48 hours

Structure (SMILES) | EC50 [1, 5] | EC50 [2, 6] | EC50 [3, 7] | Papp A→B at 120 min, 5 μM (MDR1 (P-gp); A-B direction) | Papp B→A at 120 min, 5 μM (MDR1 (P-gp); B-A direction) | MDCK-MDR1: % Recov A-B ([4]; A-B direction) | MDCK-MDR1: % Recov B-A ([4]; B-A direction) | efflux ratio at 120 min, 5 μM (MDR1; efflux ratio) | mHTT protein EC50 [1, 8] | EC50 [2, 9] | EC50 [3, 10] | Papp A→B at 120 min, 5 μM (MDR1 (P-gp); A-B) | Papp B→A at 120 min, 5 μM (MDR1 (P-gp); B-A) | MDCK-MDR1: % Recov A-B ([4]; A-B) | MDCK-MDR1: % Recov B-A ([4]; B-A) | efflux ratio at 120 min, 5 μM (MDR1) | EC50 [1, 8] | efflux ratio at 120 min, 5 μM (MDR1 (P-gp)) | efflux ratio at 120 min, 5 μM (MDR1 (P-gp); efflux ratio)
CN(c1ccc(-c2ccc(-c3cnn(C)c3)cc2O)nn1)[C@H]1C[C@@H]2CCC[C@@H](N2)[C@H]1F [Compound 15B, 2-(6-(((1R,2R,3S,5S)-2-fluoro-9-azabicyclo[3.3.1]nonan-3-yl)(methyl)amino)pyridazin-3-yl)-5-(1-methyl-1H-pyrazol-4-yl)phenol] | 0.01 to 15 nM | 0.01 to 15 nM | 0.01 to 15 nM | 3.21 ×10⁻⁶ cm/s | 39.3 ×10⁻⁶ cm/s | 62% | 84% | 12 |  |  |  |  |  |  |  |  |  |  | 
Cc1cc(=O)c2cc(-c3ccc(N(C)[C@@H]4C[C@H]5CC[C@@H]([C@@H]4F)N5C)nn3)c(O)cc2o1 [Compound 100A, 6-(6-(((1S,2S,3R,5R)-2-fluoro-8-methyl-8-azabicyclo[3.2.1]octan-3-yl)(methyl)amino)pyridazin-3-yl)-7-hydroxy-2-methyl-4H-chromen-4-one] |  |  |  |  |  |  |  |  | E (501 ≤ E ≤ 10.000) | 101 to 500 nM | 51 to 100 nM | 6.34 ×10⁻⁶ cm/s | 40.7 ×10⁻⁶ cm/s | 80% | 102% | 6 |  |  | 
CN(c1ccc(-c2cc(F)c(-c3ccn(C)c(=O)c3)cc2O)nn1)[C@@H]1C[C@H]2CC(F)(F)[C@@H](C1)N2 [Compound 22A, 4-(4-(6-(((1S,3R,5R)-6,6-difluoro-8-azabicyclo[3.2.1]octan-3-yl)(methyl)amino)pyridazin-3-yl)-2-fluoro-5-hydroxyphenyl)-1-methylpyridin-2(1H)-one] |  | 0.01 to 15 nM | 0.01 to 15 nM | 1.82 ×10⁻⁶ cm/s | 80.9 ×10⁻⁶ cm/s | 86% | 94% | 45 |  |  |  |  |  |  |  |  |  |  | 
Cc1nc2cc(-c3ccc(N(C)[C@H]4C[C@@H]5CC[C@@H](N5)[C@H]4F)nn3)c(O)cc2c(=O)n1CC(F)(F)F [Compound 113B, 7-(6-(((1R,2R,3S,5S)-2-fluoro-8-azabicyclo[3.2.1]octan-3-yl)(methyl)amino)pyridazin-3-yl)-6-hydroxy-2-methyl-3-(2,2,2-trifluoroethyl)quinazolin-4(3H)-one] |  |  |  |  |  |  |  |  |  | 16 to 50 nM | 0.01 to 15 nM | 0.3 ×10⁻⁶ cm/s | 68.4 ×10⁻⁶ cm/s | 101% | 123% | 232 | 101 to 500 nM |  | 
CN(c1ccc(-c2cc3ncn(CC(F)(F)F)c(=O)c3cc2O)nn1)[C@@H]1C[C@H]2CC[C@H](N2)[C@@H]1F [Compound 81A, 7-(6-(((1S,2S,3R,5R)-2-fluoro-8-azabicyclo[3.2.1]octan-3-yl)(methyl)amino)pyridazin-3-yl)-6-hydroxy-3-(2,2,2-trifluoroethyl)quinazolin-4(3H)-one] | 101 to 500 nM | 51 to 100 nM | 16 to 50 nM | 0.37 ×10⁻⁶ cm/s | 51 ×10⁻⁶ cm/s | 100% | 94% | 139 |  |  |  |  |  |  |  |  |  |  | 
CNC(=O)c1ccc(-c2ccc(N(C)[C@H]3C[C@@H]4CC[C@@H](N4)[C@H]3F)nn2)c(O)c1 (single isomer, unassigned) [Compound 77B] | 101 to 500 nM | 51 to 100 nM | 101 to 500 nM | 0.28 ×10⁻⁶ cm/s | 40.3 ×10⁻⁶ cm/s | 102% | 106% | 144 |  |  |  |  |  |  |  |  |  |  | 
CN(c1ccc(-c2cc3cnccc3cc2O)nn1)[C@@H]1C[C@H]2CC(F)(F)[C@@H](C1)N2 [Compound 126A, 7-(6-(((1S,3R,5R)-6,6-difluoro-8-azabicyclo[3.2.1]octan-3-yl)(methyl)amino)pyridazin-3-yl)isoquinolin-6-ol] |  |  |  |  |  |  |  |  |  | 16 to 50 nM | 0.01 to 15 nM | 13.7 ×10⁻⁶ cm/s | 35.3 ×10⁻⁶ cm/s | 80% | 92% |  | 51 to 100 nM | 3 | 
CN(c1ccc(-c2cc3c(F)cn(C)c(=O)c3cc2O)nn1)[C@@H]1C[C@H]2CC[C@H](N2)[C@@H]1F [Compound 54A, 4-fluoro-6-(6-(((1S,2S,3R,5R)-2-fluoro-8-azabicyclo[3.2.1]octan-3-yl)(methyl)amino)pyridazin-3-yl)-7-hydroxy-2-methylisoquinolin-1(2H)-one] |  | 16 to 50 nM | 0.01 to 15 nM | 3.54 ×10⁻⁶ cm/s | 82.6 ×10⁻⁶ cm/s | 108% | 115% | 23 |  |  |  |  |  |  |  |  |  |  | 
CN(c1ccc(-c2cc3ccncc3cc2O)nn1)[C@H]1C[C@@H]2CC(F)(F)[C@H](C1)N2 [Compound 125B, 6-(6-(((1R,3S,5S)-6,6-difluoro-8-azabicyclo[3.2.1]octan-3-yl)(methyl)amino)pyridazin-3-yl)isoquinolin-7-ol] |  |  |  |  |  |  |  |  |  | 16 to 50 nM | 16 to 50 nM | 15.6 ×10⁻⁶ cm/s | 53.2 ×10⁻⁶ cm/s | 67% | 81% |  | 51 to 100 nM | 3 | 
CN(c1ccc(-c2cc3ncccc3cc2O)nn1)[C@H]1C[C@@H]2CC(F)(F)[C@H](C1)N2 [Compound 46B, 7-(6-(((1R,3S,5S)-6,6-difluoro-8-azabicyclo[3.2.1]octan-3-yl)(methyl)amino)pyridazin-3-yl)quinolin-6-ol] | 101 to 500 nM | 101 to 500 nM | 16 to 50 nM | 32 ×10⁻⁶ cm/s | 31.6 ×10⁻⁶ cm/s | 68% | 86% |  |  |  |  |  |  |  |  |  |  |  | 1
CN(c1ccc(-c2cc3c(F)cn(C)c(=O)c3cc2O)nn1)[C@H]1C[C@@H]2CC[C@@H](N2)[C@H]1F [Compound 54B, 4-fluoro-6-(6-(((1R,2R,3S,5S)-2-fluoro-8-azabicyclo[3.2.1]octan-3-yl)(methyl)amino)pyridazin-3-yl)-7-hydroxy-2-methylisoquinolin-1(2H)-one] |  | 0.01 to 15 nM | 0.01 to 15 nM | 2.28 ×10⁻⁶ cm/s | 61.5 ×10⁻⁶ cm/s | 99% | 107% | 27 |  |  |  |  |  |  |  |  |  |  | 
